From patent US20260347373A1, “HETEROCYCLIC COMPOUNDS, COMPOSITIONS THEREOF, AND METHODS OF TREATMENT THEREWITH” (BeOne Medicines I GmbH, priority 2023, published 2026) come the findings set out here.

For one assay, the target named is WT KRAS (Homo sapiens, UniProt P01116). Briefly: KRAS WT Probe Displacement Assay (TR-FRET, GDP-loaded). Format: binding. The source says: (§1) The synthetic routes of probe 1 and 2, which have been disclosed in PCT/CN2022/070676, are hereby incorporated herein.
In general terms: Time-resolved FRET reads energy transfer from a long-lived donor to a nearby acceptor.

In a further assay the target is KRAS G12D (Homo sapiens, UniProt P01116, G12D). Briefly: KRAS G12D Probe Displacement Assay (TR-FRET, GDP-loaded). The class given is binding.
Text: as §1

[1] abbreviates: KRAS WT, read-out: KRAS^WT Probe Displacement Assay IC50.
Where [2] appears, read: KRAS G12D, read-out: KRAS^G12D Probe Displacement Assay IC50.

Where two headings read alike, the source gives them in different places. Where only a bound is given, the exact number is not on record here.

Sequence of KRAS G12D (P01116 1-188 isoform P01116-2 G12D): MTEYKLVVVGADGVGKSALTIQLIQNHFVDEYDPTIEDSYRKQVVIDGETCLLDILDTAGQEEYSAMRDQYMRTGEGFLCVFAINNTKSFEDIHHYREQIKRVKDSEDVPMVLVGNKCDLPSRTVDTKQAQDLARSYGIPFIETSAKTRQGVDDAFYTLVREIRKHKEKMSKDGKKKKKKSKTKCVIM
Sequence of WT KRAS (P01116 1-188 isoform P01116-2): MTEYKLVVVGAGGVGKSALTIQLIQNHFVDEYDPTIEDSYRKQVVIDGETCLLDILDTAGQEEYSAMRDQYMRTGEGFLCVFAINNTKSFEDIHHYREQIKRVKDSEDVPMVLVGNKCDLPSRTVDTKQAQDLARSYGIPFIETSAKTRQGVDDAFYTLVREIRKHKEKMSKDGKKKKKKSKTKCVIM

A word on the IC50: it is the concentration that gives 50% inhibition. Regarding `Cc1cc(N)cc(-c2nc3c4c(nc(OCC5(CN6C[C@H]7COC[C@H]7C6)CC5)nc4c2F)N2C[C@H]4CC[C@H](N4)[C@H]2CCO3)c1C(F)(F)F` [Example 100, 3-((6aR,7S,10R)-1-fluoro-13-((1-(((3aR,6aS)-tetrahydro-1H-furo[3,4-c]pyrrol-5(3H)-yl)methyl)cyclopropyl)methoxy)-5,6,6a,7,8,9,10,11-octahydro-4-oxa-3,11a,12,14,15-pentaaza-7,10-methanocyclohepta [4,5]cycloocta [1,2,3-de]naphthalen-2-yl)-5-methyl-4-(trifluoromethyl) aniline], the IC50 at WT KRAS (KRAS^WT Probe Displacement Assay IC50, KRAS WT) was 0.3 to 3 nM; on KRAS G12D (KRAS^G12D Probe Displacement Assay IC50, KRAS G12D), under 0.3 nM.
For `COC1CCN(CC2(COc3nc4c5c(nc(-c6cc(N)cc(C)c6C(F)(F)F)c(F)c5n3)OCC[C@@H]3[C@@H]5CC[C@H](CN43)N5)CC2)CC1` [Example 110, 3-((6aR,7S,10R)-1-fluoro-13-((1-((4-methoxypiperidin-1-yl)methyl)cyclopropyl)methoxy)-5,6,6a,7,8,9,10,11-octahydro-4-oxa-3,11a,12,14,15-pentaaza-7,10-methanocyclohepta[4,5]cycloocta[1,2,3-de]naphthalen-2-yl)-5-methyl-4-(trifluoromethyl)aniline], the IC50 is 3 to 1000 nM on WT KRAS (setting [1]) and under 0.3 nM on KRAS G12D (setting [2]).
For `Cc1cc(N)cc(-c2nc3c4c(nc(O[C@H](C)[C@@H]5CCCN5C)nc4c2F)N2C[C@H]4CC[C@H](N4)[C@H]2CCO3)c1C(F)(F)F` [Example 38, 3-((6aR,7S,10R)-1-fluoro-13-((R)-1-((S)-1-methylpyrrolidin-2-yl)ethoxy)-5,6,6a,7,8,9,10,11-octahydro-4-oxa-3,11a,12,14,15-pentaaza-7,10-methanocyclohepta[4,5]cycloocta [1,2,3-de]naphthalen-2-yl)-5-methyl-4-(trifluoromethyl)aniline] the same measures were 3 to 1000 nM and 0.3 to 3 nM.
The like results for `CN(C)CC1(COc2nc3c4c(nc(-c5cc(N)cc(Cl)c5C(F)(F)F)c(F)c4n2)OCC[C@@H]2[C@@H]4CC[C@H](CN32)N4)CC1F` (single isomer, unassigned) [Example 52] were, in that order, 0.3 to 3 nM and under 0.3 nM.
For `Cc1cc(N)cc(-c2nc3c4c(nc(OCC5(CN6CCC(F)(F)CC6)CC5)nc4c2F)N2C[C@H]4CC[C@H](N4)[C@H]2CCO3)c1C(F)(F)F` [Example 70, 3-((6aR,7S,10R)-13-((1-((4,4-difluoropiperidin-1-yl)methyl)cyclopropyl)methoxy)-1-fluoro-5,6,6a,7,8,9,10,11-octahydro-4-oxa-3,11a,12,14,15-pentaaza-7,10-methanocyclohepta[4,5]cycloocta [1,2,3-de]naphthalen-2-yl)-5-methyl-4-(trifluoromethyl)aniline] the same measures were 0.3 to 3 nM and under 0.3 nM.
For the compound `Cc1cc(N)cc(-c2nc3c4c(nc(OCC5(CN6CCSCC6)CC5)nc4c2F)N2C[C@H]4CC[C@H](N4)[C@H]2CCO3)c1C(F)(F)F` [Example 159, 3-((6aR,7S,10R)-1-fluoro-13-((1-(thiomorpholinomethyl)cyclopropyl)methoxy)-5,6,6a,7,8,9,10,11-octahydro-4-oxa-3,11a,12,14,15-pentaaza-7,10-methanocyclohepta[4,5]cycloocta[1,2,3-de]naphthalen-2-yl)-5-methyl-4-(trifluoromethyl)aniline], the IC50 at WT KRAS (setting [1]) is 0.3 to 3 nM; at KRAS G12D (setting [2]), under 0.3 nM.
For `Cc1cc(N)cc(-c2nc3c4c(nc(OCC5(C)COCC5N(C)C)nc4c2F)N2C[C@H]4CC[C@H](N4)[C@H]2CCO3)c1C(F)(F)F` (single isomer, unassigned) [Example 42] the same measures were 3 to 1000 nM and 0.3 to 3 nM.
For `Cc1cc(N)cc(-c2nc3c4c(nc(OCC5(CN6CCC7(CC6)CC(F)(F)C7)CC5)nc4c2F)N2C[C@H]4CC[C@H](N4)[C@H]2CCO3)c1C(F)(F)F` [Example 173, 3-((6aR,7S,10R)-13-((1-((2,2-difluoro-7-azaspiro[3.5]nonan-7-yl)methyl)cyclopropyl)methoxy)-1-fluoro-5,6,6a,7,8,9,10,11-octahydro-4-oxa-3,11a,12,14,15-pentaaza[7,10]methanocyclohepta[4,5]cycloocta[1,2,3-de]naphthalen-2-yl)-5-methyl-4-(trifluoromethyl)aniline] the same measures were 3 to 1000 nM and under 0.3 nM.
For `C=C1CN2C[C@H]3C[C@H]3[C@]2(COc2nc3c4c(nc(-c5cc(N)cc(C)c5C(F)(F)F)c(F)c4n2)OCC[C@@H]2[C@@H]4CC[C@H](CN32)N4)C1` [Example 212, 3-((6aR,7S,10R)-1-fluoro-13-(((1aS,6bR)-5-methylenehexahydrocyclopropa[a]pyrrolizin-6a(4H)-yl)methoxy)-5,6,6a,7,8,9,10,11-octahydro-4-oxa-3,11a,12,14,15-pentaaza-7,10-methanocyclohepta[4,5]cycloocta[1,2,3-de]naphthalen-2-yl)-5-methyl-4-(trifluoromethyl)aniline] the same measures were 3 to 1000 nM and under 0.3 nM.
Regarding `Cc1cc(N)cc(-c2nc3c4c(nc(OCC5(CN6CCC7(COC7)C6)CC5)nc4c2F)N2C[C@H]4CC[C@H](N4)[C@H]2CCO3)c1C(F)(F)F` [Example 189, 3-((6aR,7S,10R)-13-((1-((2-oxa-6-azaspiro[3.4]octan-6-yl)methyl)cyclopropyl)methoxy)-1-fluoro-5,6,6a,7,8,9,10,11-octahydro-4-oxa-3,11a,12,14,15-pentaaza[7,10]methanocyclohepta[4,5]cycloocta[1,2,3-de]naphthalen-2-yl)-5-methyl-4-(trifluoromethyl)aniline], the IC50 on WT KRAS (setting [1]) was 3 to 1000 nM; on KRAS G12D (setting [2]), under 0.3 nM.
The like results for `Cc1cc(N)cc(-c2nc3c4c(nc(OCC5(CN6CC=C(F)CC6)CC5)nc4c2F)N2C[C@H]4CC[C@H](N4)[C@H]2CCO3)c1C(F)(F)F` [Example 178, 3-((6aR,7S,10R)-1-fluoro-13-((1-((4-fluoro-3,6-dihydropyridin-1(2H)-yl)methyl)cyclopropyl)methoxy)-5,6,6a,7,8,9,10,11-octahydro-4-oxa-3,11a,12,14,15-pentaaza-7,10-methanocyclohepta[4,5]cycloocta[1,2,3-de]naphthalen-2-yl)-5-methyl-4-(trifluoromethyl)aniline] were, in that order, 3 to 1000 nM and under 0.3 nM.
Take `Cc1cc(N)cc(-c2nc3c4c(nc(OC[C@]56CCCN5CC(F)(F)C6)nc4c2F)N2C[C@H]4CC[C@H](N4)[C@H]2CCO3)c1C(F)(F)F` [Example 34, 3-((6aR,7S,10R)-13-(((R)-2,2-difluorotetrahydro-1H-pyrrolizin-7a(5H)-yl)methoxy)-1-fluoro-5,6,6a,7,8,9,10,11-octahydro-4-oxa-3,11a,12,14,15-pentaaza-7,10-methanocyclohepta[4,5]cycloocta [1,2,3-de]naphthalen-2-yl)-5-methyl-4-(trifluoromethyl)aniline]: the figures for the IC50 at WT KRAS (setting [1]) and at KRAS G12D (setting [2]) were 3 to 1000 nM and 0.3 to 3 nM, respectively.
